Here are results for ten compounds from patent publication US9273043B2, “TRPV1 antagonists including dihydroxy substituent and uses thereof” (Purdue Pharma L.P., priority 2011, dated 2016).

Molecules are shown by their SMILES. Values after ≈ are worked out from the molar mass of the structure shown. Where two headings read alike, the source gives them in different places.

Series [1] can be described thus: Aqueous solubility at pH 1.2 and pH 6.8. The format is physicochemical. As to conditions: aqueous solution.
Series [2] in a line: In vivo assay of body temperature increase (rectal body temperature). Also on record: species or system rat. As to conditions: rats, oral, 10 mL/kg of 1 mg/mL in 0.5% methylcellulose; greatest ΔTb versus vehicle control at 0.5, 1 or 2 hrs. The procedure, abridged:
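Male Crl/SD rats (7 weeks), acclimated and preselected for rectal temperature 37.0–37.7° C., given compound orally once at 1 mg/mL in 0.5% methylcellulose, 10 mL/kg. Rectal temperature by thermistor at 0.5, 1 and 2 h post-dose; ΔTb = treated group mean minus vehicle group mean, maximum across time points reported.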

A further series addresses human TRPV1 (Homo sapiens (Human), UniProt Q8NER1). Put plainly: Human TRPV1 heat-based assay, hTRPV1/CHO cells (hHeat-CHO). It is filed as cell-based. As to conditions: temperature ramp 25 to 45 °C, mean ± SEM. How it is done:
Human TRPV1 Heat-based Assay:
CHO cells stably expressing human TRPV1 (hTRPV1) were used. Functional assessment of heat-induced activation of hTRPV1 was carried out in a cell-based Ca^2+ flux assay using ABI7500 Fast Real-Time PCR System as described in Reubish et al., “Functional assessment of temperature-gated ion-channel activity using a real-time PCR machine,” www.BioTechniques.com 47(3):iii-ix (2009), which is hereby incorporated by reference. Briefly, hTRPV1/CHO cells were cultured in growth media in a tissue culture dish at 37° C. in a CO2 incubator. On the day of the assay, culture media were removed and the cells were then detached using 0.05% trypsin at 37° C. with 5% CO2, for 90 s. The detached cells were centrifuged (1000 rpm, 4 min) to remove trypsin-containing supernatant and resuspended in assay buffer (115 mM NaCl, 5.4 mM KCl, 0.8 mM MgCl2.6H2O, 1.8 mM CaCl2.2H2O, 13.8 mM D-glucose, and 20 mM HEPES). Then, the cells were loaded with 5 μM Fluo-4, a Ca^2+ reporter dye, in the presence of 2.5 mM probenecid at 37° C. with 5% CO2, for 45 min. Thereafter, the cells were washed twice with measuring buffer (assay buffer supplemented with 0.1% BSA and 3.2 mM CaCl2) then transferred to a Fast 96-well Reaction Plate (0.1 mL) (Part no. 4346907, MICROAMP, Applied Biosystems, Foster City, Calif.). The cell density was 100,000 cells/24 μL/well. A solution of the compound under test (6 μL/well) was added into each well of the 96-well plate. Thus, the reaction volume per well was 30 μL.
The plates were then placed inside an ABI7500 Fast Real-Time PCR instrument (Applied Biosystems) to read fluorescence at different temperatures using 7500 software, version 2.0.2 (Applied Biosystems). The initial temperature was set at 25° C. for 1 min. followed by a temperature ramp to 45° C. in 100 s to deliver heat to cells. [Ca^2+], response of hTRPV1/CHO cells to heat was determined as: [fluorescence read at 45° C.−fluorescence read at 25° C.].
Compound concentration response curves and IC50 values were analyzed using GraphPad Prism 4 software (GraphPad Software, La Jolla, Calif.).
The IC50 data provided in Table 6 are shown as mean±standard error of the mean; the number of trials conducted for each assay is shown in parentheses except for only a single trial where no number of trials is shown in parentheses.

Where [3] appears, read: pH 1.2, simulated gastric fluid, read-out: aqueous solubility at pH 1.2.
[4] abbreviates: pH 6.8, aqueous buffer, read-out: aqueous solubility at pH 6.8.

human TRPV1, sequence (Q8NER1 whole entry, looked up): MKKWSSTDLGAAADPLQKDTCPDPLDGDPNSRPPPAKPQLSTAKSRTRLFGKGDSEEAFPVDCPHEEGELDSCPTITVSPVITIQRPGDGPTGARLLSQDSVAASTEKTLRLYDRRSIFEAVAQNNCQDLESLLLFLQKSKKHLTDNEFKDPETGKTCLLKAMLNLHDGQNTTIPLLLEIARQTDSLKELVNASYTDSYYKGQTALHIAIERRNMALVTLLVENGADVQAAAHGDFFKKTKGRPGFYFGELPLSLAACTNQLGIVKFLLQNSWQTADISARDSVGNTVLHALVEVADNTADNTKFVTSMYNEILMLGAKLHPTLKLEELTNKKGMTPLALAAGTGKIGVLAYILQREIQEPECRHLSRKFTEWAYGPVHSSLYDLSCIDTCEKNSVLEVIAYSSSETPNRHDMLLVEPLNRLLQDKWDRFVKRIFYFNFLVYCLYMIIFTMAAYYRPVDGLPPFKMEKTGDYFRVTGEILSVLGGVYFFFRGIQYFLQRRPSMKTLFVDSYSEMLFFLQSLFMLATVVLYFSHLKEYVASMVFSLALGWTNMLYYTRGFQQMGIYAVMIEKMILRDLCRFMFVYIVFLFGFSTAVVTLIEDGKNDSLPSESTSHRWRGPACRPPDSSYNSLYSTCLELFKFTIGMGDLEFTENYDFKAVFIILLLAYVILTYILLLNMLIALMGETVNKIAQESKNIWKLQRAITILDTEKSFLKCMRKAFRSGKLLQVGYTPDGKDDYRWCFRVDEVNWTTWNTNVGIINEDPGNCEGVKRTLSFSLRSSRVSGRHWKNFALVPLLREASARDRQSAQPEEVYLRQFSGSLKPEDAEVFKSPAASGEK

For the compound `C[C@H]1CN(c2ncc([C@H](O)CO)cc2F)CCN1C(=O)Nc1nc2ccccc2s1` [A122(a), (S)—N-(benzo[d]thiazol-2-yl)-4-(5-((S)-1,2-dihydroxyethyl)-3-fluoropyridin-2-yl)-2-methylpiperazine-1-carboxamide], the solubility in series [1] (setting [3]) and in series [1] (setting [4]) was over 50 µM in each case. In addition, the “ΔTb, body temperature increase” value in series [2] turned out to be 0.4 °C.

Compound `C[C@@H]1CN(C(=O)Nc2nc3ccc(F)cc3s2)CCN1c1ncc([C@H](O)CO)cc1F` [A125(b), (R)-4-{5-[(S)-1,2-dihydroxyethyl]-3-fluoropyridin-2-yl}-N-(6-fluorobenzo[d]thiazol-2-yl)-3-methylpiperazine-1-carboxamide] displayed an IC50 at human TRPV1 of 389 ± 83 nM. For the same compound, in series [2], the “ΔTb, body temperature increase” value is 0.1 °C.

Consider `Cc1ccc2nc(NC(=O)N3CCN(c4ncc([C@H](O)CO)cc4F)C[C@@H]3C)sc2c1` [A126(a), (S)-4-(5-((S)-1,2-dihydroxyethyl)-3-fluoropyridin-2-yl)-2-methyl-N-(6-methylbenzo[d]thiazol-2-yl)piperazine-1-carboxamide], for which the solubility in series [1] (setting [3]) is over 50 µM; in series [1] (setting [4]) it was 14 µM (≈ 6.24 µg/mL). The “ΔTb, body temperature increase” value in series [2] worked out at 0.2 °C.

For `C[C@H]1CN(c2ncc([C@H](O)CO)cc2F)CCN1C(=O)Nc1nc2cc(F)c(F)cc2s1` [A158(a), (S)—N-(5,6-difluorobenzo[d]thiazol-2-yl)-4-(5-((S)-1,2-dihydroxyethyl)-3-fluoropyridin-2-yl)-2-methylpiperazine-1-carboxamide], the solubility in series [1] (setting [3]) is over 50 µM; in series [1] (setting [4]) it was 5 µM (≈ 2.34 µg/mL). In addition, the “ΔTb, body temperature increase” value in series [2] is 0.4 °C.

Regarding `C[C@@H]1CN(C(=O)Nc2nc3cc(F)c(F)cc3s2)CCN1c1ncc([C@H](O)CO)cc1F` [AE, (R)—N-(5,6-difluorobenzo[d]thiazol-2-yl)-4-{5-[(S)-1,2-dihydroxyethyl]-3-fluoropyridin-2-yl}-3-methylpiperazine-1-carboxamide], inhibition at human TRPV1 was half-maximal at 101.5 ± 0.8 nM (IC50). Besides, in series [2], the “ΔTb, body temperature increase” value was 0.5 °C.

As for `C[C@H](O)[C@@H](O)c1cnc(N2CCN(C(=O)Nc3nc4cc(F)c(F)cc4s3)C[C@H]2C)c(F)c1` [B158(j), (R)—N-(5,6-difluorobenzo[d]thiazol-2-yl)-4-{5-[(1S,2S)-1,2-dihydroxypropyl]-3-fluoropyridin-2-yl}-3-methylpiperazine-1-carboxamide], the “ΔTb, body temperature increase” value in series [2] is 0.1 °C.

`C[C@H](O)[C@@H](O)c1cnc(N2CCN(C(=O)Nc3nc4ccc(F)cc4s3)CC2)c(Cl)c1` [C4(r), 4-{3-Chloro-5-[(1S,2S)-1,2-dihydroxypropyl]pyridin-2-yl}-N-(6-fluorobenzo[d]thiazol-2-yl)piperazine-1-carboxamide] returned an IC50 against human TRPV1 of 87 ± 13 nM. The “ΔTb, body temperature increase” value in series [2] came to 0.3 °C.

Consider `C[C@H](O)[C@@H](O)c1cnc(N2CCN(C(=O)Nc3nc4ccc(F)cc4s3)CC2)c(F)c1` [C125(r), 4-(5-((1S,2S)-1,2-dihydroxypropyl)-3-fluoropyridin-2-yl)-N-(6-fluorobenzo[d]thiazol-2-yl)piperazine-1-carboxamide], for which the figures for the solubility in series [1] (setting [3]) and in series [1] (setting [4]) were over 50 µM and 3 µM (≈ 1.35 µg/mL), respectively. The IC50 on human TRPV1 is 335 ± 40 nM. The “ΔTb, body temperature increase” value in series [2] came out at 0.3 °C.

With `Cc1ccc2nc(NC(=O)N3CCN(c4ncc([C@H](O)[C@H](C)O)cc4F)CC3)sc2c1` [C126(r), 4-[5-((1S,2S)-1,2-Dihydroxy-propyl)-3-fluoro-pyridin-2-yl]piperazine-1-carboxylic acid (6-methyl-benzothiazol-2-yl)-amide], the solubility in series [1] (setting [3]) is over 50 µM; in series [1] (setting [4]), 4 µM (≈ 1.78 µg/mL). Also, inhibition at human TRPV1 was half-maximal at 155 ± 25 nM (IC50). Moreover, the “ΔTb, body temperature increase” value in series [2] was found to be 0.4 °C.

Compound `Cc1cc2nc(NC(=O)N3CCN(c4ncc([C@H](O)[C@H](C)O)cc4F)CC3)sc2cc1C` [C170(r), 4-(5-((1S,2S)-1,2-dihydroxypropyl)-3-fluoropyridin-2-yl)-N-(5,6-dimethylbenzo[d]thiazol-2-yl)piperazine-1-carboxamide] came in with an IC50 at human TRPV1 of 170 ± 20 nM. Further, the “ΔTb, body temperature increase” value in series [2] turned out to be 0.2 °C.

The solubility is the concentration that dissolves in the medium under given conditions. What is called IC50 is the concentration needed to halve the response being measured. A low value points to inhibition by little substance.
